Target: recombinant EZH2-641F complex (EZH2 Y641F/EED/SUZ12/RbAp48/AEBP2) (Homo sapiens (Human), UniProt Q15910, Y641F)
Assay: EZH2 Histone Methyl Transferase Assay (scintillation proximity assay)
Assay type: biochemical
Details: 350 nM histone peptide substrate, 500 nM 3H-SAM, 3 hours at room temperature
Text: EZH2 Histone Methyl Transferase Assay
The effectiveness of compounds of the present invention as inhibitors of hitone methyl transferases can be readily tested by assays known to those skilled in the art. For example, in vitro histone methyl transferase assays may be conducted with a relevant purified histone methyl transferase and an appropriate synthetic substrate to determine the inhibitory activity of the compounds. […] Reaction products were captured by binding to strepavidin-conjugated imaging beads. Incorporation of radioactive methyl group into the histone peptide substrate was determined in Leadseeker (GE Healthcare) by means of scintiallation proximity assay. […] Compounds were dissolved at 10 mM in dimethylsulfoxide (DMSO) and evaluated at eleven concentrations. EC50 values were derived by non-linear regression analysis.

Chain of recombinant EZH2-641F complex (EZH2 Y641F/EED/SUZ12/RbAp48/AEBP2) (Q15910 whole entry Y641F): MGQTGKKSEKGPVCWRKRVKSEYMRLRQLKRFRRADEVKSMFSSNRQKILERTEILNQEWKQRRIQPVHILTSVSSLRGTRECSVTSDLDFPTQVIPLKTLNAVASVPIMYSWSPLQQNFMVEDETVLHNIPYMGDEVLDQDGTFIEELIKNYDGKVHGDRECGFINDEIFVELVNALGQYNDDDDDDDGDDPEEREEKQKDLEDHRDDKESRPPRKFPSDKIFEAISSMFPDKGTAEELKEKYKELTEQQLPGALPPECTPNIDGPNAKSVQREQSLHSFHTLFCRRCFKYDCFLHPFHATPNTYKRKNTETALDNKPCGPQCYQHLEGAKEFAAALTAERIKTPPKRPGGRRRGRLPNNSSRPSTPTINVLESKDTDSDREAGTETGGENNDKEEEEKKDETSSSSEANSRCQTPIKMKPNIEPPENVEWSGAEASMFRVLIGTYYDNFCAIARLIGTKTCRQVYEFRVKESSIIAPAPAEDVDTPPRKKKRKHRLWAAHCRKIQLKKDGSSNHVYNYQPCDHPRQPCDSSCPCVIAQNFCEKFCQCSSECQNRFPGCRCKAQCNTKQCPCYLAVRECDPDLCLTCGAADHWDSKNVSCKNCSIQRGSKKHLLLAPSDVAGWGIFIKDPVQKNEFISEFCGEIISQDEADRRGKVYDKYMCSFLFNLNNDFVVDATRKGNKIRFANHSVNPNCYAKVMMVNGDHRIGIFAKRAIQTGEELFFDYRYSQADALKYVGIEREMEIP
Chain of recombinant EZH2-641F complex (EZH2 Y641F/EED/SUZ12/RbAp48/AEBP2) (O75530 whole entry partner): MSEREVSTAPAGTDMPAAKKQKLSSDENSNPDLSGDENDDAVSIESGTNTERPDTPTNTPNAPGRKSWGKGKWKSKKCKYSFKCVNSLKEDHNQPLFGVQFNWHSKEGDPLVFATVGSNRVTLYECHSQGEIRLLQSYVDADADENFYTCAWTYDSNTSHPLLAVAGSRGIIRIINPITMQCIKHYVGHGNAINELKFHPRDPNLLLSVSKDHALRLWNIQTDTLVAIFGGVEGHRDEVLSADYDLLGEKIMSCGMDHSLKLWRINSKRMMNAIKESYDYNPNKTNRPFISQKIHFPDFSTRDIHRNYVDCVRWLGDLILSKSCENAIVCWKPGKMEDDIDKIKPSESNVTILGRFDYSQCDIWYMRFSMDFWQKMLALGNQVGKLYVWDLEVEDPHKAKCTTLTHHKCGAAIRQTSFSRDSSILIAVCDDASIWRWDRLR
Chain of recombinant EZH2-641F complex (EZH2 Y641F/EED/SUZ12/RbAp48/AEBP2) (Q15022 whole entry partner): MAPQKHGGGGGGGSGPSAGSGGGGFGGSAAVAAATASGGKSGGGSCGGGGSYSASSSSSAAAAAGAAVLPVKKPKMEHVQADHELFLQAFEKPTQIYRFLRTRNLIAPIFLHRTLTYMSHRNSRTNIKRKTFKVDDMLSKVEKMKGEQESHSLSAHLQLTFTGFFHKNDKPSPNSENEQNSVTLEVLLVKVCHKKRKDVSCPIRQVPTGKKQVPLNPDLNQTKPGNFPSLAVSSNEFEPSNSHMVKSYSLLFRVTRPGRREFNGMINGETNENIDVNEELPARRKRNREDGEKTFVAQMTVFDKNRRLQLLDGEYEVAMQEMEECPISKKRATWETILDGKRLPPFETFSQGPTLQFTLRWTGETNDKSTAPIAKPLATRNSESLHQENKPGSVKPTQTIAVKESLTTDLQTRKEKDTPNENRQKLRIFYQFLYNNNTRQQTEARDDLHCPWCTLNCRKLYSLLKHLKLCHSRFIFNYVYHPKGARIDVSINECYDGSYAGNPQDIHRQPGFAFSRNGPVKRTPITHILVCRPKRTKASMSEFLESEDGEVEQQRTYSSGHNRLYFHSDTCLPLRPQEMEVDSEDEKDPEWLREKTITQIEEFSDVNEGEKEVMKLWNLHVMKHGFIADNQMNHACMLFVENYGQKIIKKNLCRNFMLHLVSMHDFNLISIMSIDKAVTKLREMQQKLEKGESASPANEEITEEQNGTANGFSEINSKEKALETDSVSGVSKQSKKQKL
Chain of recombinant EZH2-641F complex (EZH2 Y641F/EED/SUZ12/RbAp48/AEBP2) (Q09028 whole entry partner): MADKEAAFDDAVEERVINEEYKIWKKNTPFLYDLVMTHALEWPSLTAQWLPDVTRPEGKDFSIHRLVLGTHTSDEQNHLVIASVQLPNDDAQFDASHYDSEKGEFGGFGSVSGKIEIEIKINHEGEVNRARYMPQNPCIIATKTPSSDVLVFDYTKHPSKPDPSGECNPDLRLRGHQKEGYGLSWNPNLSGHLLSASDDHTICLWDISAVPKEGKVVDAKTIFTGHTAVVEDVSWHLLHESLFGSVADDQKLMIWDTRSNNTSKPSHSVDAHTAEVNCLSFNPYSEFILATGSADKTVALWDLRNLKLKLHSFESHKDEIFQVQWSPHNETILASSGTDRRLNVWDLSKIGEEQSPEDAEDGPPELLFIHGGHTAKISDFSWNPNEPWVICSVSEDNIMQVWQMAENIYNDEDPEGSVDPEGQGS
Chain of recombinant EZH2-641F complex (EZH2 Y641F/EED/SUZ12/RbAp48/AEBP2) (Q6ZN18 whole entry partner): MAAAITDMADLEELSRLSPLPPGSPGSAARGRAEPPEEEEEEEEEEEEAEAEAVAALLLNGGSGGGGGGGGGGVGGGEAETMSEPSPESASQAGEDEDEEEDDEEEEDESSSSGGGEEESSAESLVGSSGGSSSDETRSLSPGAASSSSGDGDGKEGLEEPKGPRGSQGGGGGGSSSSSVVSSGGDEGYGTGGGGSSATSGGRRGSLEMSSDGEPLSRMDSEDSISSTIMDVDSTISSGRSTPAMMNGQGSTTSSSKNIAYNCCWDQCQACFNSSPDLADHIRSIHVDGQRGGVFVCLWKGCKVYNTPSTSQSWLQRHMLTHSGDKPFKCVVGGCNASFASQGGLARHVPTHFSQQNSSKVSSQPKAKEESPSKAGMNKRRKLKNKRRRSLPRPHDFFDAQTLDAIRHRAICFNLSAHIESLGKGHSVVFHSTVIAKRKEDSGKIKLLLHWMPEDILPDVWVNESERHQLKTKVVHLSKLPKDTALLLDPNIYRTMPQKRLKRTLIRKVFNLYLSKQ

| EC50 [µM] | Structure (SMILES) |
| --- | --- |
| ≤ 5 | CCN(c1cc(-c2ccc(CN3CCOCC3)cc2)cc(C(=O)NCC2C(=O)NC(C)c3cccc(F)c32)c1C)C1CCOCC1 (stereo not shown) [Example 5, 5-(Ethyl(tetrahydro-2H-pyran-4-yl)amino)-N-((5-fluoro-1-methyl-3-oxo-1,2,3,4-tetrahydroisoquinolin-4-yl)methyl)-4-methyl-4′-(morpholinomethyl)-[1,1′-biphenyl]-3-carboxamide] |
| ≤ 5 | CCC(C)n1cc(C)c2c(C(=O)NCc3c(=O)[nH]c(C)c4ccccc34)cc(-c3ccc(N4CCN(C(=O)OC(C)(C)C)CC4)nc3)cc21 (stereo not shown) [Example 9, tert-Butyl 4-(5-(1-(sec-butyl)-3-methyl-4-(((1-methyl-3-oxo-2,3-dihydroisoquinolin-4-yl)methyl)carbamoyl)-1H-indol-6-yl)pyridin-2-yl)piperazine-1-carboxylate] |
| ≤ 0.5 | CCC(C)n1cc(C)c2c(C(=O)NCc3c(=O)[nH]c(C)c4ccccc34)cc(-c3ccc(N4CCNCC4)nc3)cc21 (stereo not shown) [Example 10, 1-(sec-Butyl)-3-methyl-N-((1-methyl-3-oxo-2,3-dihydroisoquinolin-4-yl)methyl)-6-(6-(piperazin-1-yl)pyridin-3-yl)-1H-indole-4-carboxamide] |
| ≤ 5 | Cc1[nH]c(=O)c(CNC(=O)c2cc3c(c(-c4ccc(N5CCNCC5)nc4)c2)OC(C)(C)C3)c2ccccc12 [Example 17, 2,2-Dimethyl-N-((1-methyl-3-oxo-2,3-dihydroisoquinolin-4-yl)methyl)-7-(6-(piperazin-1-yl)pyridin-3-yl)-2,3-dihydrobenzofuran-5-carboxamide] |

Reference: patent US9738630B2, “Inhibitors of lysine methyl transferase” (BRISTOL-MYERS SQUIBB COMPANY, priority 2013, dated 2017)
